Measured values from US20130261130A1, “NEUROTRYPSIN INHIBITORS” (priority 2010, published 2013).

Target: T1, human neurotrypsin (Homo sapiens, UniProt P56730)
T1 sequence (P56730 21-875): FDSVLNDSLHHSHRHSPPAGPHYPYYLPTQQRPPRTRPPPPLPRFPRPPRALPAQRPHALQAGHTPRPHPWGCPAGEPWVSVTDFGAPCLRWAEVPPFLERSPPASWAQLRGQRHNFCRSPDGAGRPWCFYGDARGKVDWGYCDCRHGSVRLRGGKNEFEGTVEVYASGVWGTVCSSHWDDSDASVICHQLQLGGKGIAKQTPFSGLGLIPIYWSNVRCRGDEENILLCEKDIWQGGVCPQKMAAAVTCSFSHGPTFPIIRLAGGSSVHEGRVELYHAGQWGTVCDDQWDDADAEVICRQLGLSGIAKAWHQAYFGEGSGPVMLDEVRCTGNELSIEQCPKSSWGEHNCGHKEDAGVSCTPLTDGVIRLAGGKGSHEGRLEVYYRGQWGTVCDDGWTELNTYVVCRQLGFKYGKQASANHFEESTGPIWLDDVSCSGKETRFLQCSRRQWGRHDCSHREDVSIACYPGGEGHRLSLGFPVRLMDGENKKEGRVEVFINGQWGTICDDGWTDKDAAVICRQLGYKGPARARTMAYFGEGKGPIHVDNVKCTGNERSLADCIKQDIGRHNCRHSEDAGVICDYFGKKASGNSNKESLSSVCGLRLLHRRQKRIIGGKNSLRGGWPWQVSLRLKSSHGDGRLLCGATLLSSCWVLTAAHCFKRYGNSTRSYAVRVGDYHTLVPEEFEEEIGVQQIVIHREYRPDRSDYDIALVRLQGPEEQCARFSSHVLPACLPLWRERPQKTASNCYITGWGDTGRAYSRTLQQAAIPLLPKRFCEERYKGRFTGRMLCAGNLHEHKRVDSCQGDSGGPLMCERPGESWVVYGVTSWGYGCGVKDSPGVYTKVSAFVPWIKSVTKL
Experiment: Determination of IC50 for human neurotrypsin
Type: biochemical
Conditions: human neurotrypsin; method of WO 2006/1103261; read-out: Neurotrypsin IC50
Method: Assessment of the potency of compounds of examples 1-311 in inhibiting the enzymatic activity of human neurotrypsin was performed according to the method described in patent application WO 2006/1103261

| Compound | IC50 [µM] |
| --- | --- |
| 2-(6-Chlorobenzo[b]-thiophene-2-carboxamido)-5-((5-chlorothiophen-2-yl-methyl)carbamoyl)benzoic acid [Example 107] | 4.8 |
| 3-Chloro-N-(5-(5-chloro-1,3-thiazol-2-ylcarbamoyl)-2-(2H-tetrazol-5-yl)phenyl)benzo[b]-thiophene-2-carboxamide [Example 227] | 9.7 |
| 4-(4-tert-Butoxyphenyl-carbamoyl)-3-(3-chloro-thiophene-2-carboxamido)-benzoic acid [Example 194] | 5.9 |
| 5-(N-4-Butylphenyl-N-methyl-carbamoyl)-2-(4-(5,6-dichloro-1H-benzo[d]-imidazol-2-yl)benzamido)-benzoic acid [Example 44] | 1.6 |
| O=C(Nc1ccc(Cl)cc1)c1ccc(C(=O)O)c(NC(=O)c2sc3ccccc3c2Cl)c1 [Example 1, 2-(3-Chlorobenzo[b]thiophene-2-carboxamido)-4-(4-chlorophenylcarbamoyl)-benzoic acid] | 8.5 |
| O=C(Nc1ccc(Cl)cc1)c1ccc(C(=O)O)c(NC(=O)c2ccc(-c3ccccc3)s2)c1 [Example 9, 4-(4-Chlorophenyl-carbamoyl)-2-(5-phenyl-thiophene-2-carboxamido)-benzoic acid] | 25.7 |
| O=C(Nc1ccc(Cl)cn1)c1ccc(C(=O)O)c(NC(=O)c2sc3ccccc3c2Cl)c1 [Example 16, 2-(3-Chlorobenzo[b]-thiophene-2-carboxamido)-4-(5-chloropyridin-2-yl-carbamoyl)benzoic acid] | 8 |
| O=C(Nc1ccc(Cl)cc1)c1ccc(C(=O)O)c(NC(=O)c2sc3cc(Cl)ccc3c2Cl)c1 [Example 18, 4-(4-Chlorophenyl-carbamoyl)-2-(3,6-dichloro-benzo[b]thiophene-2-carboxamido)benzoic acid] | 8.3 |
| O=C(Nc1ccc(Cl)cc1)c1ccc(C(=O)O)c(NC(=O)c2cc3ccc(Cl)cc3s2)c1 [Example 23] | 2.6 |
| O=C(O)c1ccc(C(=O)Nc2ccc(Cl)cc2)c(NC(=O)c2ccc(-c3ccccc3)s2)c1 [Example 25, 4-(4-Chlorophenyl-carbamoyl)-3-(5-phenyl-thiophene-2-carboxamido)-benzoic acid] | > 150 |
| O=C(NC1CCCc2ccccc21)c1ccc(C(=O)O)c(NC(=O)c2sc3ccccc3c2Cl)c1 (stereo not drawn) [Example 32, 2-(3-Chlorobenzo[b]-thiophene-2-carboxamido)-4-(1,2,3,4-tetrahydro-naphthalen-1-ylcarbamoyl)-benzoic acid] | 13.6 |
| O=C(N[C@@H]1C[C@H]2CC[C@@H]1C2)c1ccc(C(=O)O)c(NC(=O)c2sc3ccccc3c2Cl)c1 [Example 34, 4-((1R,2R,4S)-Bicyclo[2.2.1]-heptan-2-ylcarbamoyl)-2-(3-chlorobenzo[b]thiophene-2-carboxamido)benzoic acid] | 14.1 |
| O=C(O)c1cc(C(=O)N2CCC(c3c(Cl)cccc3Cl)CC2)ccc1NC(=O)c1sc2ccccc2c1Cl [Example 35, 2-(3-Chlorobenzo[b]-thiophene-2-carboxamido)-5-(4-(2,6-dichlorophenyl)-piperidine-1-carbonyl)benzoic acid] | 3.2 |
| O=C(Nc1ccc(Cl)cc1)c1ccc(NC(=O)c2ccc(-c3nc4ccccc4[nH]3)cc2)c(C(=O)O)c1 [Example 36, 2-(4-(1H-Benzo[d]imidazol-2-yl)benzamido)-5-(4-chloro-phenylcarbamoyl)benzoic acid] | 3.5 |
| O=C(Nc1ccc(C(=O)N2CCC(c3ccc(F)cc3)CC2)cc1C(=O)O)c1ccc(-c2nc3cc(Cl)c(Cl)cc3[nH]2)cc1 [Example 38, 2-(4-(5,6-Dichloro-1H-benzo[d]imidazol-2-yl)-benzamido)-5-(4-(4-fluorophenyl)piperidine-1-carbonyl)benzoic acid] | 4.8 |
| O=C(Nc1ccc(Cl)cc1)c1ccc(C(=O)O)c(NC(=O)c2ccc(-c3nc4cc(Cl)c(Cl)cc4[nH]3)cc2)c1 [Example 40, 4-(4-Chlorophenyl-carbamoyl)-2-(4-(5,6-di-chloro-1H-benzo[d]imidazol-2-yl)benzamido)benzoic acid] | 0.8 |
| CC(C)CCN(C)C(=O)c1ccc(NC(=O)c2ccc(-c3nc4cc(Cl)c(Cl)cc4[nH]3)cc2)c(C(=O)O)c1 [Example 43, 2-(4-(5,6-Dichloro-1H-benzo[d]imidazol-2-yl)-benzamido)-5-(N-isopentyl-N-methylcarbamoyl)benzoic acid] | 3.9 |
| CC(C)CN(C(=O)c1ccc(NC(=O)c2ccc(-c3nc4cc(Cl)c(Cl)cc4[nH]3)cc2)c(C(=O)O)c1)c1ccc(Cl)cc1 [Example 45, 5-(N-4-Chlorophenyl-N-isobutylcarbamoyl)-2-(4-(5,6-dichloro-1H-benzo[d]-imidazol-2-yl)benzamido)-benzoic acid] | 1.5 |
| CN(CC1CCCCC1)C(=O)c1ccc(NC(=O)c2ccc(-c3nc4cc(Cl)c(Cl)cc4[nH]3)cc2)c(C(=O)O)c1 [Example 49, 5-(N-Cyclohexylmethyl-N-methylcarbamoyl)-2-(4-(5,6-dichloro-1H-benzo[d]-imidazol-2-yl)benzamido)-benzoic acid] | 6.6 |
| O=C(Nc1nccs1)c1ccc(C(=O)O)c(NC(=O)c2sc3ccccc3c2Cl)c1 [Example 52, 2-(3-Chlorobenzo[b]thiophene-2-carboxamido)-4-(thiazol-2-ylcarbamoyl)-benzoic acid] | 15.4 |
| O=C(Nc1ncc(Cl)s1)c1ccc(C(=O)O)c(NC(=O)c2ccc(-c3ccccc3)s2)c1 [Example 62] | 7.5 |

Now from value to compound:

| IC50 [µM] | Compound |
| --- | --- |
| 1.9 | O=C(Nc1ccc(Cl)cc1F)c1ccc(C(=O)O)c(NC(=O)c2sc3ccccc3c2Cl)c1 [Example 5, 2-(3-Chlorobenzo[b]-thiophene-2-carboxamido)-4-(4-chloro-2-fluoro-phenyl-carbamoyl)benzoic acid] |
| 4 | O=C(O)c1ccc(C(=O)N2CCC(Cc3ccccc3)CC2)cc1NC(=O)c1sc2ccccc2c1Cl [Example 24, 4-(4-Benzylpiperidine-1-carbonyl)-2-(3-chloro-benzo[b]thiophene-2-carboxamido)benzoic acid] |
| 3.2 | O=C(Nc1ccc(Cl)cc1)c1ccc(NC(=O)c2sc3ccccc3c2Cl)c(C(=O)O)c1 [Example 26, 2-(3-Chlorobenzo[b]-thiophene-2-carboxamido)-5-(4-chlorophenylcarbamoyl)-benzoic acid] |
| 5 | O=C(Nc1ncc(Cl)s1)c1ccc(C(=O)O)c(NC(=O)c2ccc(-c3ccc(F)cc3)s2)c1 [Example 27, 4-(5-Chlorothiazol-2-yl-carbamoyl)-2-(5-(4-fluorophenyl)thiophene-2-carboxamido)benzoic acid] |
| 11.3 | O=C(O)c1ccc(C(=O)N2CCC(Oc3ccccc3)CC2)cc1NC(=O)c1sc2ccccc2c1Cl [Example 28, 2-(3-Chlorobenzo[b]-thiophene-2-carboxamido)-4-(4-phenoxypiperidine-1-carbonyl)benzoic acid] |
| 4.5 | O=C(NC12CC3CC(CC(C3)C1)C2)c1ccc(C(=O)O)c(NC(=O)c2sc3ccccc3c2Cl)c1 [Example 33, 2-(3-Chlorobenzo[b]-thiophene-2-carboxamido)-4-(adamantylcarbamoyl)-benzoic acid] |
| 1.6 | O=C(Nc1ccc(Cl)cc1)c1ccc(NC(=O)c2ccc(-c3nc4cc(Cl)ccc4[nH]3)cc2)c(C(=O)O)c1 [Example 37, 2-(4-(5-Chloro-1H-benzo[d]-imidazol-2-yl)benzamido)-5-(4-chlorophenylcarbamoyl)-benzoic acid] |
| 4.4 | CC(C)CN(CC(C)C)C(=O)c1ccc(NC(=O)c2ccc(-c3nc4cc(Cl)c(Cl)cc4[nH]3)c(O)c2)c(C(=O)O)c1 [Example 42, 2-(4-(5,6-Dichloro-1H-benzo[d]imidazol-2-yl)-3-hydroxybenzamido)-5-(diisobutylcarbamoyl)benzoic acid] |
| 3.4 | CC(C)CN(CC(C)C)C(=O)c1ccc(NC(=O)c2ccc(-c3nc4cc(Cl)c(Cl)cc4n3C)cc2)c(C(=O)O)c1 [Example 46, 2-(4-(5,6-Dichloro-1-methyl-1H-benzo[d]imidazol-2-yl)benzamido)-5-(diisobutyl-carbamoyl)benzoic acid] |
| 3.4 | O=C(Nc1ccccc1F)c1ccc(NC(=O)c2ccc(-c3nc4cc(Cl)c(Cl)cc4[nH]3)cc2)c(C(=O)O)c1 [Example 48, 2-(4-(5,6-Dichloro-1H-benzo[d]imidazol-2-yl)-benzamido)-5-(2-fluoro-phenylcarbamoyl)benzoic acid] |
| 0.5 | O=C(Nc1ccc(Cl)cc1F)c1ccc(NC(=O)c2ccc(-c3nc4cc(Cl)c(Cl)cc4[nH]3)cc2)c(C(=O)O)c1 [Example 51, 5-(4-Chloro-2-fluorophenyl-carbamoyl)-2-(4-(5,6-dichloro-1H-benzo[d]-imidazol-2-yl)benzamido)-benzoic acid] |
| 9 | O=C(Nc1ncc(Cl)s1)c1ccc(C(=O)O)c(NC(=O)c2sc3ccccc3c2Cl)c1 [Example 59] |
